Reference: PubChem BioAssay AID1259407 (Chemical Carcinogenesis Research Information System (CCRIS), 2018)
The source made the active and inactive calls. No rule for the calls is given here.

Test system: CCRIS mutagenicity, Ames/micronucleus/aberration tests
Assay: CCRIS mutagenicity studies
[1] = Test System: AMES SALMONELLA TYPHIMURIUM, Strain/Indicator: TA100, Metabolic Activation: NONE, Method: PREINCUBATION

CC(=O)CN(CC(C)=O)N=O
mutagenic call (Test System: AMES SALMONELLA TYPHIMURIUM, Strain/Indicator: TA100, Metabolic Activation: HAMSTER, LIVER, S-9, 3-METHYLCHOLANTHRENE, Method: PREINCUBATION): active; positive
mutagenic call (Test System: AMES SALMONELLA TYPHIMURIUM, Strain/Indicator: TA100, Metabolic Activation: HAMSTER, LIVER, S-9, PHENOBARBITAL, Method: PREINCUBATION): active; positive
mutagenic call (Test System: AMES SALMONELLA TYPHIMURIUM, Strain/Indicator: TA100, Metabolic Activation: HAMSTER, LIVER, S-9, Method: PREINCUBATION): active; positive
mutagenic call (Test System: AMES SALMONELLA TYPHIMURIUM, Strain/Indicator: TA100, Metabolic Activation: HUMAN, LIVER, S-9, Method: PREINCUBATION): active; positive
mutagenic call (Test System: AMES SALMONELLA TYPHIMURIUM, Strain/Indicator: TA100, Metabolic Activation: MONKEY, LIVER, S-9, Method: PREINCUBATION): active; positive
mutagenic call (Test System: AMES SALMONELLA TYPHIMURIUM, Strain/Indicator: TA100, Metabolic Activation: MOUSE, LIVER, S-9, 3-METHYLCHOLANTHRENE, Method: PREINCUBATION): active; positive
mutagenic call (Test System: AMES SALMONELLA TYPHIMURIUM, Strain/Indicator: TA100, Metabolic Activation: MOUSE, LIVER, S-9, PHENOBARBITAL, Method: PREINCUBATION): active; positive
mutagenic call (Test System: AMES SALMONELLA TYPHIMURIUM, Strain/Indicator: TA100, Metabolic Activation: MOUSE, LIVER, S-9, Method: PREINCUBATION): active; positive
mutagenic call [1]: inactive; negative
mutagenic call (Test System: AMES SALMONELLA TYPHIMURIUM, Strain/Indicator: TA100, Metabolic Activation: RABBIT, LIVER, S-9, Method: PREINCUBATION): active; positive
mutagenic call (Test System: AMES SALMONELLA TYPHIMURIUM, Strain/Indicator: TA100, Metabolic Activation: RAT, LIVER, CYTOSOL, PCB, Method: PREINCUBATION): active; positive
mutagenic call (Test System: AMES SALMONELLA TYPHIMURIUM, Strain/Indicator: TA100, Metabolic Activation: RAT, LIVER, MICROSOMES AND CYTOSOL, PCB, Method: PREINCUBATION): active; positive
mutagenic call (Test System: AMES SALMONELLA TYPHIMURIUM, Strain/Indicator: TA100, Metabolic Activation: RAT, LIVER, MICROSOMES AND G6PDH, PCB, Method: PREINCUBATION): active; positive
mutagenic call (Test System: AMES SALMONELLA TYPHIMURIUM, Strain/Indicator: TA100, Metabolic Activation: RAT, LIVER, MICROSOMES, PCB, Method: PREINCUBATION): active; positive
mutagenic call (Test System: AMES SALMONELLA TYPHIMURIUM, Strain/Indicator: TA100, Metabolic Activation: RAT, LIVER, S-9 (HEATED), PCB, Method: PREINCUBATION): active; positive
mutagenic call (Test System: AMES SALMONELLA TYPHIMURIUM, Strain/Indicator: TA100, Metabolic Activation: RAT, LIVER, S-9, 3-METHYLCHOLANTHRENE, Method: PREINCUBATION): active; positive
mutagenic call (Test System: AMES SALMONELLA TYPHIMURIUM, Strain/Indicator: TA100, Metabolic Activation: RAT, LIVER, S-9, AROCLOR 1254, Method: PREINCUBATION): active; positive
mutagenic call (Test System: AMES SALMONELLA TYPHIMURIUM, Strain/Indicator: TA100, Metabolic Activation: RAT, LIVER, S-9, N-BENZYLIMIDAZOLE, Method: PREINCUBATION): active; positive
mutagenic call (Test System: AMES SALMONELLA TYPHIMURIUM, Strain/Indicator: TA100, Metabolic Activation: RAT, LIVER, S-9, PCB, Method: PREINCUBATION): active; positive
mutagenic call (Test System: AMES SALMONELLA TYPHIMURIUM, Strain/Indicator: TA100, Metabolic Activation: RAT, LIVER, S-9, PHENOBARBITAL, Method: PREINCUBATION): active; positive
mutagenic call (Test System: AMES SALMONELLA TYPHIMURIUM, Strain/Indicator: TA100, Metabolic Activation: RAT, LIVER, S-9, Method: PREINCUBATION): active; positive
mutagenic call (Test System: AMES SALMONELLA TYPHIMURIUM, Strain/Indicator: TA100, Metabolic Activation: RAT, LIVER, S-9 WITHOUT NADP+, PCB, Method: PREINCUBATION): active; positive
mutagenic call (Test System: AMES SALMONELLA TYPHIMURIUM, Strain/Indicator: TA100, Method: PREINCUBATION): active; positive
mutagenic call (Test System: AMES SALMONELLA TYPHIMURIUM, Strain/Indicator: TA104, Metabolic Activation: RAT, LIVER, S-9, AROCLOR 1254, Method: PREINCUBATION): inactive; negative
mutagenic call (Test System: AMES SALMONELLA TYPHIMURIUM, Strain/Indicator: TA1535, Metabolic Activation: RAT, LIVER, S-9, AROCLOR 1254, Method: PREINCUBATION): active; positive
mutagenic call (Test System: AMES SALMONELLA TYPHIMURIUM, Strain/Indicator: TA1975, Metabolic Activation: RAT, LIVER, S-9, AROCLOR 1254, Method: PREINCUBATION): active; positive
mutagenic call (Test System: CHINESE HAMSTER V-79, Strain/Indicator: V-79/6-THIOGUANINE, Metabolic Activation: HAMSTER, PANCREAS, DUCT CELL-MEDIATED, Method: STANDARD PLATE): active; positive
mutagenic call (Test System: CHINESE HAMSTER V-79, Strain/Indicator: V-79/OUABAIN, Metabolic Activation: HAMSTER, HEPATOCYTES, Method: CELL-MEDIATED): active; positive
mutagenic call (Test System: CHINESE HAMSTER V-79, Strain/Indicator: V-79/OUABAIN, Metabolic Activation: HAMSTER, PANCREAS, ACINAR CELL-MEDIATED, Method: STANDARD PLATE): active; positive

C[N+](=O)[O-]
mutagenic call (Test System: AMES SALMONELLA TYPHIMURIUM, Strain/Indicator: TA98, Metabolic Activation: HAMSTER, LIVER, S-9, AROCLOR 1254 (10%), Method: PREINCUBATION): inactive; negative
mutagenic call (Test System: AMES SALMONELLA TYPHIMURIUM, Strain/Indicator: TA98, Metabolic Activation: HAMSTER, LIVER, S-9, AROCLOR 1254, FLAVIN MONONUCLEOTIDE, Method: PREINCUBATION): inactive; negative
mutagenic call (Test System: AMES SALMONELLA TYPHIMURIUM, Strain/Indicator: TA98, Metabolic Activation: NONE, Method: PREINCUBATION): inactive; negative
mutagenic call (Test System: AMES SALMONELLA TYPHIMURIUM, Strain/Indicator: TA98, Metabolic Activation: RAT, LIVER, S-9, AROCLOR 1254 (10%), Method: PREINCUBATION): inactive; negative
mutagenic call (Test System: AMES SALMONELLA TYPHIMURIUM, Strain/Indicator: TA98, Metabolic Activation: RAT, LIVER, S-9, KANECHLOR 500, Method: PREINCUBATION): inactive; negative
mutagenic call (Test System: AMES SALMONELLA TYPHIMURIUM, Strain/Indicator: TA100, Metabolic Activation: HAMSTER, LIVER, S-9, AROCLOR 1254 (10%), Method: PREINCUBATION): inactive; negative
mutagenic call (Test System: AMES SALMONELLA TYPHIMURIUM, Strain/Indicator: TA100, Metabolic Activation: HAMSTER, LIVER, S-9, AROCLOR 1254, FLAVIN MONONUCLEOTIDE, Method: PREINCUBATION): inactive; negative
mutagenic call [1]: inactive; negative
mutagenic call (Test System: AMES SALMONELLA TYPHIMURIUM, Strain/Indicator: TA100, Metabolic Activation: RAT, LIVER, S-9, AROCLOR 1254 (10%), Method: PREINCUBATION): inactive; negative
mutagenic call (Test System: AMES SALMONELLA TYPHIMURIUM, Strain/Indicator: TA100, Metabolic Activation: RAT, LIVER, S-9, KANECHLOR 500, Method: PREINCUBATION): inactive; negative
mutagenic call (Test System: AMES SALMONELLA TYPHIMURIUM, Strain/Indicator: TA1535, Metabolic Activation: HAMSTER, LIVER, S-9, AROCLOR 1254 (10%), Method: PREINCUBATION): inactive; negative
mutagenic call (Test System: AMES SALMONELLA TYPHIMURIUM, Strain/Indicator: TA1535, Metabolic Activation: NONE, Method: PREINCUBATION): inactive; negative
mutagenic call (Test System: AMES SALMONELLA TYPHIMURIUM, Strain/Indicator: TA1535, Metabolic Activation: RAT, LIVER, S-9, AROCLOR 1254 (10%), Method: PREINCUBATION): inactive; negative
mutagenic call (Test System: AMES SALMONELLA TYPHIMURIUM, Strain/Indicator: TA1537, Metabolic Activation: HAMSTER, LIVER, S-9, AROCLOR 1254 (10%), Method: PREINCUBATION): inactive; negative
mutagenic call (Test System: AMES SALMONELLA TYPHIMURIUM, Strain/Indicator: TA1537, Metabolic Activation: NONE, Method: PREINCUBATION): inactive; negative
mutagenic call (Test System: AMES SALMONELLA TYPHIMURIUM, Strain/Indicator: TA1537, Metabolic Activation: RAT, LIVER, S-9, AROCLOR 1254 (10%), Method: PREINCUBATION): inactive; negative
mutagenic call (Test System: E. COLI, Strain/Indicator: WP2 UVRA (PKM101), Metabolic Activation: NONE, Method: PREINCUBATION): inactive; negative
mutagenic call (Test System: E. COLI, Strain/Indicator: WP2 UVRA (PKM101), Metabolic Activation: RAT, LIVER, S-9, KANECHLOR 500, Method: PREINCUBATION): inactive; negative
mutagenic call (Test System: MOUSE LYMPHOMA, Strain/Indicator: L5178Y (TK+/TK-), Metabolic Activation: NONE, Method: SUSPENSION/PLATE): active; positive. reevaluation of results: equivocal
mutagenic call (Test System: Mouse lymphoma, Strain/Indicator: L5178Y (tk+/tk-), Metabolic Activation: Rat, Liver, S-9, Aroclor 1254, Method: Suspension/plate): inactive; negative
